# Paper PMC10657444, “Design and evaluation of tadpole-like conformational antimicrobial peptides” (Communications Biology, 2023)
# “And” between values parts separate entries of the source, which are not always exact repeats. Equal entries are not always repeated. Where two headings read alike, the source gives them in different places. Residues, ends and D or L forms follow the SMILES beside them.
# Key:
# [1] = tested on: K. pneumoniae ATCC 700603; type: cell-based, Klebsiella pneumoniae
# Excerpt: (§1) Bacteria were cultivated in Luria-Bertani (LB) broth.
# K. pneumoniae 3026 = type: cell-based, Klebsiella pneumoniae
# Excerpt: as §1
# sheep red blood cells = experiment: Hemolysis assay
# Method: To evaluate the hemolysis effects of peptides, red blood hemolysis was performed as described with minimum modifications. Sterile defibrated sheep blood was purchased from Guangzhou Hongquan Biotechnology Co., LTD. Blood cells were adjusted to 2 × 10^9 cells/mL in phosphate-buffered saline (PBS, pH 7.4). In total, 98 μL sheep red blood cell suspension was incubated with 2 μL of peptides at different concentrations ranging from 3.13 to 100 µM. After incubation for 1 h at 37 °C, the cells were centrifuged and the absorbance of the supernatant was measured at 450 nm. The value for “zero hemolysis” was determined using sterile PBS, while 100% hemolysis was established using 1.5% (v/v) Triton X-100. Hemolysis of testing sample was calculated as the percentage of Triton X-100-induced hemolysis.
# A. baumannii 1337 = type: cell-based, Acinetobacter baumannii
# Excerpt: as §1
# A. baumannii 1318 = type: cell-based, Acinetobacter baumannii
# Excerpt: as §1
# MRSA ATCC 43300 = type: cell-based, Staphylococcus aureus; details: ATCC 43300
# Excerpt: as §1
# MRSA 3393 = type: cell-based, Staphylococcus aureus; details: 3393
# Excerpt: as §1
# MRSA USA 300 = type: cell-based, Staphylococcus aureus
# Excerpt: as §1
# MTT cytotoxicity assay = type: cell-based, human; details: human
# Method: (§2) To determine the cytotoxicity of the peptides, we used the MTT (3-(4,5)-dimethylthiahiazo (-z-y1)-3,5-di-phenytetrazoliumromide) dye reduction assay against HEK293T cells. In brief, the 100 μL of cells in 96-well plate were incubated for 24 h at 37 °C, 5% CO2, and then peptide solutions (concentrations ranging from 100 to 0.39 μM) were added and further incubated for 72 h. MTT solution (5 mg/mL) was added and further incubated for 4 h. After incubation, the precipitated MTT formazan crystal was dissolved by addition of dimethyl sulfoxide (DMSO). […]
# HEK293T cells = experiment: MTT cytotoxicity assay; type: cell-based, human; details: for percent cell viability: HEK293T
# Method: as §2
# E. coli S = type: cell-based, Escherichia coli
# Excerpt: as §1
# E. coli ATCC 25922 = type: cell-based, Escherichia coli
# Excerpt: as §1
# [2] = tested on: all tested bacterial strains; details: range over all strains
# Excerpt: The bacterial strains used in this study included the Gram-positive bacteria methicillin resistant Staphylococcus aureus (MRSA) (MRSA ATCC 43300 and 2 clinically isolated strains presented as MRSA USA 300 and MRSA 3393), Gram-negative bacteria Escherichia coli (E. coli ATCC 25922, and 1 clinically isolated strain presented as E. coli S), Klebsiella pneumoniae (K. pneumoniae ATCC 700603, and 1 clinically isolated strain presented as K. pneumoniae 3026), and Acinetobacter baumannii (2 clinically isolated strains presented as A. baumannii 1318 and A. baumannii 1337). Bacteria were cultivated in Luria-Bertani (LB) broth.
# The Clinical and Laboratory Standards Institute (CLSI)-defined broth microdilution testing method (M07, 11th edition, 2018) was used to determine MICs for peptides. Briefly, the concentrations of the peptides and ciprofloxacin in the assay wells ranged from 100 μM to 0.01 μM as a 11-point dose response plated as a 2-fold dilution series across the wells of the plate in duplicate for each independent biological replicate. Bacterial susceptibility assays were performed in Cation-Adjusted Mueller Hinton Broth (CAMHB), and using a final cell density of 5 × 10^6 CFU/mL for bacteria[36]. Final assay volumes were 100 μL per well with MICs determined by measuring absorbance at 595 nm with a microplate reader following 18–20 h incubation at 37 °C. […]
# MRSA = type: cell-based, Staphylococcus aureus; details: range over the MRSA strains
# Excerpt: as §1
# [3] = tested on: Gram-negative bacterial strains; type: cell-based; details: range over the strains
# Excerpt: as §1
# [4] = HEK293T cells, OD450, cytotoxicity (Fig 2a), replicates
smiles,measurement,setting,value
CC[C@H](C)[C@H](NC(=O)[C@H](CCCNC(=N)N)NC(=O)[C@H](CCCNC(=N)N)NC(=O)[C@H](CC(C)C)NC(=O)[C@H](Cc1ccccc1)NC(=O)[C@@H](N)CCCNC(=N)N)C(=O)N[C@@H](Cc1ccccc1)C(=O)N[C@@H](CCCNC(=N)N)C(=O)N[C@@H](Cc1ccccc1)C(=O)N[C@@H](Cc1ccccc1)C(=O)N[C@@H](Cc1ccccc1)C(N)=O [HT4] (H-RFLRRIFRFFF-NH2),MIC Gram- K. p ATCC 700603,[1],3.13 µM
same,MIC Gram- K. p 3026,K. pneumoniae 3026,12.5 µM
same,HC10 (concentration inducing 10% hemolysis),"sheep red blood cells; red cells of sheep, 1 h",12.5 µM
same,MIC Gram- A. b 1337,A. baumannii 1337,3.13 µM
same,MIC Gram- A. b 1318,A. baumannii 1318,3.13 µM
same,MIC Gram+ MRSA ATCC 43300,MRSA ATCC 43300,3.13 µM
same,MIC Gram+ MRSA 3393,MRSA 3393,3.13 µM
same,MIC Gram+ MRSA USA 300,MRSA USA 300,3.13 µM
same,IC50 at 72 h,MTT cytotoxicity assay,2600 nM
same,"viability at 72 h, 0.39 µM",MTT cytotoxicity assay; [4],85.8%
same,"viability at 72 h, 0.78 µM",MTT cytotoxicity assay; [4],80%
same,"viability at 72 h, 1.57 µM",MTT cytotoxicity assay; [4],70.9%
same,"viability at 72 h, 3.13 µM",MTT cytotoxicity assay; [4],34.7%
same,"viability at 72 h, 6.25 µM",MTT cytotoxicity assay; [4],22.3%
same,"viability at 72 h, 12.5 µM",MTT cytotoxicity assay; [4],13.4%
same,"viability at 72 h, 25 µM",MTT cytotoxicity assay; [4],5.83%
same,toxicity / cytotoxicity against HEK293T cells (in words),HEK293T cells,high toxicity
same,MIC Gram- E. coli S,E. coli S,12.5 µM
same,MIC Gram- E. coli ATCC 25922,E. coli ATCC 25922,6.25 µM
same,MICs against all tested bacterial strains,[2],3.13 to 12.5 µM
CC[C@H](C)[C@H](NC(=O)[C@H](CCCNC(=N)N)NC(=O)[C@H](CCCNC(=N)N)NC(=O)[C@H](CC(C)C)NC(=O)[C@H](Cc1ccccc1)NC(=O)[C@@H](N)CCCNC(=N)N)C(=O)N[C@@H](Cc1ccccc1)C(=O)N[C@@H](CCCCN)C(=O)N[C@@H](Cc1ccccc1)C(=O)N[C@@H](Cc1ccccc1)C(=O)N[C@@H](Cc1ccccc1)C(N)=O [HT5] (H-RFLRRIFKFFF-NH2),MIC Gram- K. p ATCC 700603,[1],12.5 µM
same,MIC Gram- K. p 3026,K. pneumoniae 3026,12.5 µM
same,HC10 (concentration inducing 10% hemolysis),"sheep red blood cells; red cells of sheep, 1 h",12.5 µM
same,MIC Gram- A. b 1337,A. baumannii 1337,3.13 µM
same,MIC Gram- A. b 1318,A. baumannii 1318,3.13 µM
same,MIC Gram+ MRSA ATCC 43300,MRSA ATCC 43300,3.13 µM
same,MIC Gram+ MRSA 3393,MRSA 3393,3.13 µM
same,MIC Gram+ MRSA USA 300,MRSA USA 300,3.13 µM
same,IC50 at 72 h,MTT cytotoxicity assay,2300 nM
same,"viability at 72 h, 0.39 µM",MTT cytotoxicity assay; [4],85.5%
same,"viability at 72 h, 0.78 µM",MTT cytotoxicity assay; [4],79.4%
same,"viability at 72 h, 1.57 µM",MTT cytotoxicity assay; [4],62.7%
same,"viability at 72 h, 3.13 µM",MTT cytotoxicity assay; [4],21%
same,"viability at 72 h, 6.25 µM",MTT cytotoxicity assay; [4],22.6%
same,"viability at 72 h, 12.5 µM",MTT cytotoxicity assay; [4],8.57%
same,"viability at 72 h, 25 µM",MTT cytotoxicity assay; [4],10.4%
same,toxicity / cytotoxicity against HEK293T cells (in words),HEK293T cells,high toxicity
same,MIC Gram- E. coli S,E. coli S,6.25 µM
same,MIC Gram- E. coli ATCC 25922,E. coli ATCC 25922,6.25 µM
same,MICs against all tested bacterial strains,[2],3.13 to 12.5 µM
CC[C@H](C)[C@H](NC(=O)[C@H](CCCNC(=N)N)NC(=O)[C@H](CO)NC(=O)[C@H](CC(C)C)NC(=O)[C@H](Cc1ccccc1)NC(=O)[C@H](Cc1ccccc1)NC(=O)[C@@H](N)Cc1ccccc1)C(=O)N[C@@H](Cc1ccccc1)C(N)=O [SHf] (H-FFFLSRIF-NH2; N-terminus assumed),"OD450, hemolysis (Fig 2b), replicates",sheep red blood cells; 3.13 µM,0.01725 and 0.01686 and 0.01568 and 0.01738 and 0.01699 and 0.0158
same,"OD450, hemolysis (Fig 2b), replicates",sheep red blood cells; 6.25 µM,0.01882 and 0.01529 and 0.01725 and 0.01896 and 0.01541 and 0.01738
same,"OD450, hemolysis (Fig 2b), replicates",sheep red blood cells; 12.5 µM,0.01725 and 0.01803 and 0.01764 and 0.01738 and 0.01817 and 0.01777
same,"OD450, hemolysis (Fig 2b), replicates",sheep red blood cells; 25 µM,0.01921 (2×) and 0.01764 and 0.01936 (2×) and 0.01777
same,"OD450, hemolysis (Fig 2b), replicates",sheep red blood cells; 50 µM,0.02038 and 0.02156 and 0.01921 and 0.02054 and 0.02173 and 0.01936
same,"OD450, hemolysis (Fig 2b), replicates",sheep red blood cells; 100 µM,0.01999 and 0.02234 and 0.02195 and 0.02014 and 0.02252 and 0.02212
same,hemolytic activity (in words),"sheep red blood cells; sheep red blood cells, 3.13–100 μM",did not present hemolytic activity
same,HC10 (concentration inducing 10% hemolysis),"sheep red blood cells; sheep red blood cells, 1 h at 37 °C",> 100.0 µM
same,MICs against MRSA,MRSA,50 to 100 µM
same,MICs against the tested Gram-negative bacterial strains,[3],> 100 µM
same,"viability at 72 h, 0.39 µM","MTT cytotoxicity assay; HEK293T cells, HEK293T, 0.39 µM, read-out: OD450, cytotoxicity (Fig 2a), replicates",99%
same,"viability at 72 h, 0.78 µM","MTT cytotoxicity assay; HEK293T cells, HEK293T, 0.78 µM, read-out: OD450, cytotoxicity (Fig 2a), replicates",90.4%
same,"viability at 72 h, 1.57 µM","MTT cytotoxicity assay; HEK293T cells, HEK293T, 1.57 µM, read-out: OD450, cytotoxicity (Fig 2a), replicates",97.8%
same,"viability at 72 h, 3.13 µM","MTT cytotoxicity assay; HEK293T cells, HEK293T, 3.13 µM, read-out: OD450, cytotoxicity (Fig 2a), replicates",100%
same,"viability at 72 h, 6.25 µM","MTT cytotoxicity assay; HEK293T cells, HEK293T, 6.25 µM, read-out: OD450, cytotoxicity (Fig 2a), replicates",92.7%
same,"viability at 72 h, 12.5 µM","MTT cytotoxicity assay; HEK293T cells, HEK293T, 12.5 µM, read-out: OD450, cytotoxicity (Fig 2a), replicates",93.4%
same,"viability at 72 h, 25 µM","MTT cytotoxicity assay; HEK293T cells, HEK293T, 25 µM, read-out: OD450, cytotoxicity (Fig 2a), replicates",94.9%
same,"viability at 72 h, 50 µM","MTT cytotoxicity assay; HEK293T cells, HEK293T, 50 µM, read-out: OD450, cytotoxicity (Fig 2a), replicates",92.3%
same,"viability at 72 h, 100 µM","MTT cytotoxicity assay; HEK293T cells, HEK293T, 100 µM, read-out: OD450, cytotoxicity (Fig 2a), replicates",27.1%
same,IC50 at 72 h,"MTT cytotoxicity assay; HEK293T, MTT, 72 h, read-out: IC50, mammalian cell cytotoxicity",59000 nM
same,percent cell viability,HEK293T cells; 0.39 µM,94.1313 and 97.2791
same,percent cell viability,HEK293T cells; 0.78 µM,95.9839 and 98.206
same,percent cell viability,HEK293T cells; 1.57 µM,94.1313 and 96.7238
same,percent cell viability,HEK293T cells; 3.13 µM,98.2056
same,percent cell viability,HEK293T cells; 6.25 µM,98.9467 and 92.2795
same,percent cell viability,HEK293T cells; 12.5 µM,99.6874 and 99.3163
same,percent cell viability,HEK293T cells; 25 µM,98.9463 and 99.3171
same,percent cell viability,HEK293T cells; 50 µM,91.54 and 92.6507
same,percent cell viability,HEK293T cells; 100 µM,21.5425 and 18.5796
